Data from US20060074032A1 (Academic Pharmaceuticals, Inc., priority 2000, published 2006).
Where two headings read alike, the source gives them in different places.

Key:
IKs currents = biological target: T1, IKs currents (Homo sapiens, UniProt P51787); conditions: cited from earlier work
T1 construct: expressed in transfected cells; host or cells: Xenopus oocytes injected with cRNA (pSP64 poly(A) constructs)

rat colon = experiment: Rat colon GI contractility (deflection magnitude); conditions: n = 5 per group
Experimental: The ileum was harvested and placed in warmed (37° C.) Krebs […] buffer and oxygenated (95% O2 and 5% CO2). Segments approximately 4.5 cm long were placed on a transducer (Gilson Instruments) and a preload of 2 gm was applied. The tissue was placed in a chamber and bathed in Tyrode's solution (37.5° C.) and gassed with 95% O2 and 5% CO2. Muscle contractions were measured isometrically. After stable contractions were obtained, a study compound was added to the tissue bath and recordings made until a new steady state of contraction was obtained. Following a washout period, contractions were recorded during a new steady state period, then the procedure repeated with at a second dose of the drug being evaluated. Changes in contraction magnitude were recorded as the percentage change from baseline. This procedure is a modification of the technique described by Van Nueten and associates (Van Nueten, et al., Inhibition of dopamine receptors in the stomach: an explanation of the gastrokinetic properties of domperidone. Life Sciences 1978, 23:453-458). […] A segment of rat colon was suspended in a constant temperature bath as described above, and the baseline parameters measured oxygenated Tyrode's solution without erythromycin or chiral isolates.

rat ileum = experiment: Rat ileum GI contractility (isometric muscle contraction); conditions: for Deflection Magnitude, percentage change from control / Slow Wave Amplitude, percentage change from control / Slow Wave Frequency, percentage change from control: n = 5
Experimental: The ileum was harvested and placed in warmed (37° C.) Krebs […] buffer and oxygenated (95% O2 and 5% CO2). Segments approximately 4.5 cm long were placed on a transducer (Gilson Instruments) and a preload of 2 gm was applied. The tissue was placed in a chamber and bathed in Tyrode's solution (37.5° C.) and gassed with 95% O2 and 5% CO2. Muscle contractions were measured isometrically. After stable contractions were obtained, a study compound was added to the tissue bath and recordings made until a new steady state of contraction was obtained. Following a washout period, contractions were recorded during a new steady state period, then the procedure repeated with at a second dose of the drug being evaluated. Changes in contraction magnitude were recorded as the percentage change from baseline. This procedure is a modification of the technique described by Van Nueten and associates (Van Nueten, et al., Inhibition of dopamine receptors in the stomach: an explanation of the gastrokinetic properties of domperidone. Life Sciences 1978, 23:453-458).

T1 sequence (P51787 whole entry): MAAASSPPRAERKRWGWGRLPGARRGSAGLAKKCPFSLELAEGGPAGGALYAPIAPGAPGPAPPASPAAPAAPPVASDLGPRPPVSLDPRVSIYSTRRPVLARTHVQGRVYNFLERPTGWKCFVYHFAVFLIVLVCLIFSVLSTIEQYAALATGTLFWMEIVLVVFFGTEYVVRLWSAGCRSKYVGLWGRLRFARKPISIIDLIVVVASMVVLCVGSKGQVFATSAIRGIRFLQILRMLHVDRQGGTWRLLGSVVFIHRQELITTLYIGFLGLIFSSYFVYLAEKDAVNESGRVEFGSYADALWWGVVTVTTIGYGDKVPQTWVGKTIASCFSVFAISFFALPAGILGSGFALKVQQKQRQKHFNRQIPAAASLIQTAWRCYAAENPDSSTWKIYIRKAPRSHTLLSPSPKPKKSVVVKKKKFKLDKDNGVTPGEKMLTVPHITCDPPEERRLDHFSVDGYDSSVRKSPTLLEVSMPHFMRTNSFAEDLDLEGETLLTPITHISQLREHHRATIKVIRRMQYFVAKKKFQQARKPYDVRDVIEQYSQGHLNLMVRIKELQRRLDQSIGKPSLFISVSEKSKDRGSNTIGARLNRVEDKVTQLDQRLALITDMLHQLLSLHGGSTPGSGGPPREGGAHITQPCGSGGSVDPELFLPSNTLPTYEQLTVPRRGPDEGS

Row | Compound | Reduction of IKs currents (IKs currents; quinidine 10^−4 M) [%] | Reduction of IKs currents (IKs currents; quinidine 10^−6 M) [%] | Percent Change in Deflection Magnitude, change from control (rat colon; 10^−5 M) [%] | Percent Change in Deflection Magnitude, change from control (rat colon; 10^−6 M) [%] | Percent Change in Deflection Magnitude, change from control (rat colon; 10^−7 M) [%] | Effect on slow contractile wave amplitude, slow wave frequency and magnitude of deflection, in words (rat ileum; 10^−7 M to 10^−5 M) | Deflection Magnitude, percentage change from control (rat ileum; erythromycin 10^−5 M) [%] | Slow Wave Amplitude, percentage change from control (rat ileum; erythromycin 10^−5 M) [%] | Slow Wave Frequency, percentage change from control (rat ileum; erythromycin 10^−5 M) [%] | Deflection Magnitude, percentage change from control (rat ileum; erythromycin 10^−6 M) [%] | Slow Wave Amplitude, percentage change from control (rat ileum; erythromycin 10^−6 M) [%] | Slow Wave Frequency, percentage change from control (rat ileum; erythromycin 10^−6 M) [%] | Deflection Magnitude, percentage change from control (rat ileum; erythromycin 10^−7 M) [%] | Slow Wave Amplitude, percentage change from control (rat ileum; erythromycin 10^−7 M) [%] | Slow Wave Frequency, percentage change from control (rat ileum; erythromycin 10^−7 M) [%]
1 | C=C[C@H]1C[N@@]2CC[C@H]1C[C@@H]2[C@@H](O)c1ccnc2ccc(OC)cc12 [quinidine] | 52 | 14 | – | – | – | – | – | – | – | – | – | – | – | – | –
2 | Erythromycin | – | – | 95 | 70 | 33 | dose-related increase | 33 | 17 | 27 | 22 | 15 | 21 | 14 | 12 | 14
